The source made the active and inactive calls. The rule behind the calls is not given here.
Columns and labels:
[1] = biological target: T1, Glucagon-like peptide 1 receptor (Homo sapiens, UniProt P43220); assay: Agonist activity at human GLP1R expressed in HEK293 cells at 30 nM after 5 hrs by luciferase reporter gene assay; format: cell-based
[2] = biological target: T2, Glucagon-like peptide 2 receptor (Homo sapiens, UniProt O95838); assay: Agonist activity at human GLP2R expressed in HEK293 cells after 5 hrs by luciferase reporter gene assay; format: cell-based
T2 sequence (O95838 whole entry): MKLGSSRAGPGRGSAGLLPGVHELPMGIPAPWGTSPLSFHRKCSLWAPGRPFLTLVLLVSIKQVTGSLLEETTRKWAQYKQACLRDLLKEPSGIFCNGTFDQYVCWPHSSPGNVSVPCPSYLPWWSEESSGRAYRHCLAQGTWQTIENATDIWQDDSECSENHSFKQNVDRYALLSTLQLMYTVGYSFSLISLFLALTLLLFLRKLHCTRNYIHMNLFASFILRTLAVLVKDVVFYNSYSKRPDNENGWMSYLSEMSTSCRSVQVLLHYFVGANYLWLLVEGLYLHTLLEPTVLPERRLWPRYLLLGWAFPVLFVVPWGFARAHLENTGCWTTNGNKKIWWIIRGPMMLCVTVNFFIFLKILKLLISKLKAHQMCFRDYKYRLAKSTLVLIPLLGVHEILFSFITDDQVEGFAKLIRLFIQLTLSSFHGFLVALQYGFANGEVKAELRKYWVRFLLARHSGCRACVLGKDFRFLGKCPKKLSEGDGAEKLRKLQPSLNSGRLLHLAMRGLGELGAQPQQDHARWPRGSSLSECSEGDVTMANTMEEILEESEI

[3] = biological target: T1, Glucagon-like peptide 1 receptor; assay: Agonist activity at human GLP1R expressed in HEK293 cells after 5 hrs by luciferase reporter gene assay; format: cell-based
HEK293 = assay: Selectivity ratio of EC50 for human GLP1R expressed in HEK293 cells to EC50 for human GLP2R expressed in HEK293; format: cell-based
[4] = biological target: Glucagon receptor (Homo sapiens) (UniProt P47871); assay: Agonist activity at human GCGR expressed in HEK293 cells after 5 hrs by luciferase reporter gene assay; format: cell-based
[5] = biological target: T3, Glucagon-like peptide 2 receptor (Homo sapiens) (UniProt O95838); assay: Potency index, ratio of compound EC50 to compound 2 EC50 for human GLP2R expressed in HEK293 cells; format: cell-based
T3 sequence (whole entry): T2 sequence (O95838 whole entry)

[6] = Systemic clearance in Sprague-Dawley rat at 0.2 mg/kg, iv through cassette dosing measured up to 300 mins by LC/MS/MS analysis; format: ADME, organism-based; conditions: in vivo

T1 sequence (P43220 whole entry): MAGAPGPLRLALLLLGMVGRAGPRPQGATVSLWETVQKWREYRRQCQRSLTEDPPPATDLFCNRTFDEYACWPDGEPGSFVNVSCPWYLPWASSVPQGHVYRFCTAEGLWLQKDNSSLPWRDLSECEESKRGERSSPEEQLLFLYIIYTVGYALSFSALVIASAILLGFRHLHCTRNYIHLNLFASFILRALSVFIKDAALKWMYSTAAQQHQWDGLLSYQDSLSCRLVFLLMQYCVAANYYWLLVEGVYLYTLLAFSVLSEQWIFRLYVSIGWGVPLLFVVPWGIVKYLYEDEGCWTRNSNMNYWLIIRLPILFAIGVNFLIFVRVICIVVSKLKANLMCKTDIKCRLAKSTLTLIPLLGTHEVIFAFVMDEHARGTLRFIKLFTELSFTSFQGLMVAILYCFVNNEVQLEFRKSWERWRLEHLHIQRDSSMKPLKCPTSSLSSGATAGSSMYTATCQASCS
Sequence of Glucagon receptor (Homo sapiens) (P47871 whole entry): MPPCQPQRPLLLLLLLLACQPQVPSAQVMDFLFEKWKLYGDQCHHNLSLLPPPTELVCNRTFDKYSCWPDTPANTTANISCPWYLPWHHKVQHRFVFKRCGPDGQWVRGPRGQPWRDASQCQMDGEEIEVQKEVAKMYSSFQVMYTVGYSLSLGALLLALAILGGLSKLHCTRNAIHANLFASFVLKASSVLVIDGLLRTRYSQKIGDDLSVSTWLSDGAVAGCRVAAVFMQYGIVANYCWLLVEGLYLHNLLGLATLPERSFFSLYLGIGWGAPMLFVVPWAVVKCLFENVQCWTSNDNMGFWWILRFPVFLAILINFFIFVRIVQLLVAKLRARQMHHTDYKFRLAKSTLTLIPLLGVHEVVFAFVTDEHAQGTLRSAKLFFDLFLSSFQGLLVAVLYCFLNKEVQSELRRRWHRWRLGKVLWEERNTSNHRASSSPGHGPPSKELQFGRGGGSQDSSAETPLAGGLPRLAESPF

Row | Compound | Efficacy [1] [%] | EC50 [2] [nM] | EC50 [3] [nM] | Activity [4] | Ratio EC50 [5] | clearance [6] [mL/min/kg] | Ratio EC50 (HEK293)
1 | CCCCC(NC(=O)[C@H](CCC(=O)O)NC(=O)[C@H](CC(=O)O)NC(=O)[C@H](CO)NC(=O)[C@H](Cc1ccccc1)NC(=O)[C@H](CO)NC(=O)CNC(=O)[C@H](CC(=O)O)NC(=O)CNC(=O)[C@@H](N)Cc1cnc[nH]1)C(=O)N[C@H](Cc1ccc(Cl)cc1)C(=O)N[C@H](C(=O)N[C@H](C(=O)N[C@@H](CC(C)C)C(=O)N[C@@H](CC(=O)O)C(=O)N[C@@H](CC(N)=O)C(=O)N[C@@H](CC(C)C)C(=O)N[C@@H](C)C(=O)N[C@@H](C)C(=O)N[C@@H](CCCNC(=N)N)C(=O)N[C@@H](CC(=O)O)C(=O)N[C@@H](Cc1ccccc1)C(=O)N[C@H](C(=O)N[C@@H](CC(N)=O)C(=O)N[C@@H](Cc1c[nH]c2ccccc12)C(=O)N[C@@H](CC(C)C)C(=O)N[C@H](C(=O)N[C@@H](CCC(N)=O)C(=O)N[C@H](C(=O)N[C@@H](CCCCN)C(N)=O)[C@@H](C)O)[C@@H](C)CC)[C@@H](C)CC)[C@@H](C)CC)[C@@H](C)O (stereo partly specified) | 86 |  |  | inactive |  |  | 660
2 | CCCCC(NC(=O)[C@H](CCC(=O)O)NC(=O)[C@H](CC(=O)O)NC(=O)[C@H](CO)NC(=O)[C@H](Cc1ccccc1)NC(=O)[C@H](CO)NC(=O)CNC(=O)[C@H](CC(=O)O)NC(=O)CNC(=O)[C@@H](N)Cc1cnc[nH]1)C(=O)N[C@H](Cc1ccccc1)C(=O)N[C@H](C(=O)N[C@H](C(=O)N[C@@H](CC(C)C)C(=O)N[C@@H](CC(=O)O)C(=O)N[C@@H](CC(N)=O)C(=O)N[C@@H](CC(C)C)C(=O)N[C@@H](C)C(=O)N[C@@H](C)C(=O)N[C@@H](CCCNC(=N)N)C(=O)N[C@@H](CC(=O)O)C(=O)N[C@@H](Cc1ccccc1)C(=O)N[C@H](C(=O)N[C@@H](CC(N)=O)C(=O)N[C@@H](Cc1c[nH]c2ccccc12)C(=O)N[C@@H](CC(C)C)C(=O)N[C@H](C(=O)N[C@@H](CCC(N)=O)C(=O)N[C@H](C(=O)N[C@@H](CCCCN)C(N)=O)[C@@H](C)O)[C@@H](C)CC)[C@@H](C)CC)[C@@H](C)CC)[C@@H](C)O (stereo partly specified) | 64 |  |  | inactive |  |  | 1300
3 | CCCCC(NC(=O)[C@H](CCC(=O)O)NC(=O)[C@H](CC(=O)O)NC(=O)[C@H](CO)NC(=O)[C@H](Cc1ccccc1)NC(=O)[C@H](CO)NC(=O)CNC(=O)[C@H](CC(=O)O)NC(=O)CNC(=O)[C@@H](N)Cc1cnc[nH]1)C(=O)N[C@@H](CC(C)C)C(=O)N[C@H](C(=O)N[C@H](C(=O)N[C@@H](CC(C)C)C(=O)N[C@@H](CC(=O)O)C(=O)N[C@@H](CC(N)=O)C(=O)N[C@@H](CC(C)C)C(=O)N[C@@H](C)C(=O)N[C@@H](C)C(=O)N[C@@H](CCCNC(=N)N)C(=O)N[C@@H](CC(=O)O)C(=O)N[C@@H](Cc1ccccc1)C(=O)N[C@H](C(=O)N[C@@H](CC(N)=O)C(=O)N[C@@H](Cc1c[nH]c2ccccc12)C(=O)N[C@@H](CC(C)C)C(=O)N[C@H](C(=O)N[C@@H](CCC(N)=O)C(=O)N[C@H](C(=O)N[C@@H](CCCCN)C(N)=O)[C@@H](C)O)[C@@H](C)CC)[C@@H](C)CC)[C@@H](C)CC)[C@@H](C)O (stereo partly specified) | 44 | 0.15 | 180 | inactive |  |  | 
4 | H-HGDGSFSDEMNTILDNLAARDFINWLIQTK-NH2 |  | 0.22 | > 1000 |  | 2.4 | 20 | > 4500
5 | CCCCC(NC(=O)[C@H](CCC(=O)O)NC(=O)[C@H](CC(=O)O)NC(=O)[C@@H](CO)NC(=O)[C@H](Cc1ccccc1)NC(=O)[C@H](CO)NC(=O)CNC(=O)[C@H](CC(=O)O)NC(=O)CNC(=O)[C@@H](N)Cc1cnc[nH]1)C(=O)N[C@@H](CC(N)=O)C(=O)N[C@H](C(=O)N[C@H](C(=O)N[C@@H](CC(C)C)C(=O)N[C@@H](CC(=O)O)C(=O)N[C@@H](CC(N)=O)C(=O)N[C@@H](CC(C)C)C(=O)N[C@@H](C)C(=O)N[C@@H](C)C(=O)N[C@@H](CCCNC(=N)N)C(=O)N[C@@H](CC(=O)O)C(=O)N[C@@H](Cc1ccccc1)C(=O)N[C@H](C(=O)N[C@@H](CC(N)=O)C(=O)N[C@@H](Cc1c[nH]c2ccccc12)C(=O)N[C@@H](CC(C)C)C(=O)N[C@H](C(=O)N[C@@H](CCC(N)=O)C(=O)N[C@H](C(=O)N[C@@H](CCCCN)C(N)=O)[C@@H](C)O)[C@@H](C)CC)[C@@H](C)CC)[C@@H](C)CC)[C@@H](C)O (stereo partly specified) |  | 0.19 | > 1000 | inactive | 0.86 |  | > 5200

Now from value to compound, other results behind:

Row | Efficacy [1] [%] | EC50 [2] [nM] | EC50 [3] [nM] | Activity [4] | Ratio EC50 [5] | clearance [6] [mL/min/kg] | Compound | Ratio EC50 (HEK293)
6 | 71 |  |  |  |  |  | CC[C@H](C)[C@H](NC(=O)[C@H](Cc1ccccc1)NC(=O)[C@H](CC(=O)O)NC(=O)[C@H](CCCNC(=N)N)NC(=O)[C@H](C)NC(=O)[C@H](C)NC(=O)[C@H](CC(C)C)NC(=O)[C@H](CC(N)=O)NC(=O)[C@H](CC(=O)O)NC(=O)[C@H](CC(C)C)NC(=O)[C@@H](NC(=O)[C@@H](NC(=O)[C@H](CC(N)=O)NC(=O)[C@H](CCSC)NC(=O)[C@H](CCC(=O)O)NC(=O)[C@H](CC(=O)O)NC(=O)[C@H](CO)NC(=O)[C@H](Cc1ccccc1)NC(=O)[C@H](CO)NC(=O)CNC(=O)[C@H](CC(=O)O)NC(=O)[C@H](C)NC(=O)[C@@H](N)Cc1cnc[nH]1)[C@@H](C)O)[C@@H](C)CC)C(=O)N[C@@H](CC(N)=O)C(=O)N[C@@H](Cc1c[nH]c2ccccc12)C(=O)N[C@@H](CC(C)C)C(=O)N[C@H](C(=O)N[C@@H](CCC(N)=O)C(=O)N[C@H](C(=O)N[C@@H](CCCCN)C(=O)N[C@H](C(=O)N[C@H](C(=O)N[C@@H](CC(=O)O)C(=O)O)[C@@H](C)O)[C@@H](C)CC)[C@@H](C)O)[C@@H](C)CC | 
7 | 108 | 1.9 | 39 | inactive |  |  | CCCCC(NC(=O)[C@H](CCC(=O)O)NC(=O)[C@H](CC(=O)O)NC(=O)[C@H](CO)NC(=O)[C@H](Cc1ccccc1)NC(=O)[C@H](CO)NC(=O)CNC(=O)[C@H](CC(=O)O)NC(=O)CNC(=O)[C@@H](N)Cc1cnc[nH]1)C(=O)N[C@H](Cc1ccc(-c2ccccc2)cc1)C(=O)N[C@H](C(=O)N[C@H](C(=O)N[C@@H](CC(C)C)C(=O)N[C@@H](CC(=O)O)C(=O)N[C@@H](CC(N)=O)C(=O)N[C@@H](CC(C)C)C(=O)N[C@@H](C)C(=O)N[C@@H](C)C(=O)N[C@@H](CCCNC(=N)N)C(=O)N[C@@H](CC(=O)O)C(=O)N[C@@H](Cc1ccccc1)C(=O)N[C@H](C(=O)N[C@@H](CC(N)=O)C(=O)N[C@@H](Cc1c[nH]c2ccccc12)C(=O)N[C@@H](CC(C)C)C(=O)N[C@H](C(=O)N[C@@H](CCC(N)=O)C(=O)N[C@H](C(=O)N[C@@H](CCCCN)C(N)=O)[C@@H](C)O)[C@@H](C)CC)[C@@H](C)CC)[C@@H](C)CC)[C@@H](C)O (stereo partly specified) | 20
8 | 83 | 0.18 | 21 | inactive |  |  | CCCCC(NC(=O)[C@@H](CCC(=O)O)NC(=O)[C@@H](CC(=O)O)NC(=O)[C@@H](CO)NC(=O)[C@@H](Cc1ccccc1)NC(=O)[C@@H](CO)NC(=O)CNC(=O)[C@@H](CC(=O)O)NC(=O)CNC(=O)[C@@H](N)Cc1cnc[nH]1)C(=O)NC(Cc1ccc(-c2ccccc2)cc1)C(=O)N[C@@H](C(=O)N[C@@H](C(=O)N[C@H](CC(C)C)C(=O)N[C@H](CC(=O)O)C(=O)N[C@H](CC(N)=O)C(=O)N[C@H](CC(C)C)C(=O)N[C@H](C)C(=O)N[C@H](C)C(=O)N[C@H](CCCNC(=N)N)C(=O)N[C@H](CC(=O)O)C(=O)N[C@H](Cc1ccccc1)C(=O)N[C@@H](C(=O)N[C@H](CC(N)=O)C(=O)N[C@@H](Cc1c[nH]c2ccccc12)C(=O)N[C@@H](CC(C)C)C(=O)N[C@H](C(=O)N[C@@H](CCC(N)=O)C(=O)N[C@H](C(=O)N[C@H](CCCCN)C(N)=O)[C@@H](C)O)[C@H](C)CC)[C@@H](C)CC)[C@H](C)CC)[C@H](C)O (stereo partly specified) | 110
9 | 35 | 0.44 | 300 | inactive |  |  | CCCCC(NC(=O)[C@H](CCC(=O)O)NC(=O)[C@H](CC(=O)O)NC(=O)[C@H](CO)NC(=O)[C@H](Cc1ccccc1)NC(=O)[C@H](CO)NC(=O)CNC(=O)[C@H](CC(=O)O)NC(=O)CNC(=O)[C@@H](N)Cc1cnc[nH]1)C(=O)N[C@@H](Cc1cnc[nH]1)C(=O)N[C@H](C(=O)N[C@H](C(=O)N[C@@H](CC(C)C)C(=O)N[C@@H](CC(=O)O)C(=O)N[C@@H](CC(N)=O)C(=O)N[C@@H](CC(C)C)C(=O)N[C@@H](C)C(=O)N[C@@H](C)C(=O)N[C@@H](CCCNC(=N)N)C(=O)N[C@@H](CC(=O)O)C(=O)N[C@@H](Cc1ccccc1)C(=O)N[C@H](C(=O)N[C@@H](CC(N)=O)C(=O)N[C@@H](Cc1c[nH]c2ccccc12)C(=O)N[C@@H](CC(C)C)C(=O)N[C@H](C(=O)N[C@@H](CCC(N)=O)C(=O)N[C@H](C(=O)N[C@@H](CCCCN)C(N)=O)[C@@H](C)O)[C@@H](C)CC)[C@@H](C)CC)[C@@H](C)CC)[C@@H](C)O (stereo partly specified) | 680
